Literature values as cited in US7935500B2, “Identifying calcineurin activators for treatment of schizophrenia” (Massachusetts Institute of Technology, priority 2002, dated 2011).

Key:
IP3 receptors [1] = settings: literature studies [29], [30]
IP3 receptors [2] = settings: literature studies [29], [30]; remark: listed apart in the source
ryanodine receptor [3] = settings: literature study [28]
ryanodine receptor [4] = settings: literature study [28]; remark: listed apart in the source

effect on calcium influx (IP3 receptors [1]) | Compound | effect on binding of [3H]-IP3 to membranes (IP3 receptors [2]) | effect on binding of [3H]-ryanodine to membranes (ryanodine receptor [3]) | effect on probability of the channel being open (calcium influx) (ryanodine receptor [4])
decrease calcium influx | CCN(CC)CCCC(C)Nc1ccnc2cc(Cl)ccc12 (stereo not shown) [chloroquine] | decrease binding of [3H]-IP3 to membranes | – | –
– | Cc1ccc(C(=O)Nc2ccc(S(=O)(=O)O)c3cc(S(=O)(=O)O)cc(S(=O)(=O)O)c23)cc1NC(=O)c1cccc(NC(=O)Nc2cccc(C(=O)Nc3cc(C(=O)Nc4ccc(S(=O)(=O)O)c5cc(S(=O)(=O)O)cc(S(=O)(=O)O)c45)ccc3C)c2)c1 [suramin] | – | increase binding of [3H]-ryanodine to membranes | increase the probability of the channel being open
